The values below come from patent US4699910A, “N-(3-trifluoromethyl-phenyl)-N'-propargyl-piperazine and salts thereof useful as analgesics” (Boehringer Ingelheim KG, priority 1983, dated 1987).

What all share (type): in vivo
Assay [1] relates to Rabbit's tooth pulp. In words: Rabbit's tooth pulp test (analgesia). The settings on record: s.c. The source says: 3. Rabbit's tooth pulp test
Hoffmeister, F., Arzneimittelf. 16 (supplement), 1968.

Assay [2] in a line: Gait test (analgesia). Conditions: sc. From the text:
Atkinson, D. C., and Cowan, A. J., Pharm. Pharmacol. 26, 727-728 (1974)

Assay [3] can be described thus: Writhing test (analgesia).
Where [4] appears, read: po, read-out: Writhing test ED50 p.o.
The mark [5] stands for this setting: sc, read-out: Writhing test ED50 s.c.

`Cc1c(N(C)CS(=O)(=O)O)c(=O)n(-c2ccccc2)n1C` [Metamizole-sodium (Novalgin ®)]: the “Rabbit's tooth pulp test EDIV” value in assay [1] is recorded as “approx. 560”. For the same compound, the ED50 in assay [2] was 97 mg/kg; in assay [3] (setting [4]), 80 mg/kg; in assay [3] (setting [5]), 25 mg/kg.

With `C#CCN1CCN(c2cccc(C(F)(F)F)c2)CC1.Cl` [N-(3-Trifluoromethyl-phenyl)-N'-propargyl-piperazine hydrochloride], the “Rabbit's tooth pulp test EDIV” value in assay [1] is listed as “approx. 10”. Moreover, the ED50 in assay [2] turned out to be 2.8 mg/kg; in assay [3] (setting [4]), 43 mg/kg; in assay [3] (setting [5]) it was 5.3 mg/kg.
